Assay results as given in patent US20230060873A1, “COMPOUNDS AND METHODS FOR FORMING ION CHANNELS IN BIOLOGICAL MEMBRANES” (Washington University, priority 2021, published 2023).

Columns and labels:
[1] = Single-channel patch clamp recordings, inside-out, on giant multilamellar vesicles; format: biochemical; details: 10 μM; for single channel conductance with different ions: Na+ and NMDG+ compared with K+; for single channel activity with different ions: NaCl or NMDG-Cl; for NPO / Translocation rate: 100 mV
Experimental: The liposome preparation was based on protocols employed by Jiang et al., Activation of the archaeal ion channel MthK is exquisitely regulated by temperature, Elife 2020, 9, to reconstitute bacterial ion channels in proteoliposomes (giant multilamellar vesicles; GMLV). The method is adapted to produce plain liposomes. A total of 25 mg of asolectin from soybean (Avanti) was dissolved in 1 mL of chloroform, dried under argon, and kept overnight under vacuum. The dried lipids were resuspended using bath sonication in a resuspension solution (250 mM KCl, 30 mM HEPES, 0.1 mM CaCl2, pH adjusted at 7.6 with KOH) to a final concentration of 15 mg/mL and stored in 30 μL aliquots at −80° C. Aliquots were thawed and placed on a clean glass slide and dried in a desiccator under vacuum at room temperature. The lipids were then rehydrated with 50 μL resuspension solution for more than 2 h to yield the GMLVs.
Direct detection of electrophysiological activity in biological membranes is the gold standard for any putative ion channel. The 6-O-10 and 6-A-10 compounds were tested for ion channel activity by using the patch clamp technique in the inside-out configuration on giant multilamellar vesicles (GMLV) of asolectin.
Single-channel recordings were obtained by patch-clamping GMLV. After seal formation, patches were excised to obtain the inside-out configuration, and then the pipette solution and the bath solution were assumed to be “external” and “internal” solutions, respectively. Pipettes of borosilicate capillary glass 2-000-100 (Drummond Scientific Company) were pulled in a horizontal pipette puller P-97 (Sutter Instrument). Pipette resistance was 5-10 MΩ in any of the solutions tested. Data were acquired with an Axopatch 200A (Axon Instruments) amplifier. Current signals were sampled with a 16-bit A/D converter Axon Digi-data 1550B (Axon Instruments) at a sampling rate of 100 kHz and low-pass filtered at 10 kHz. Data was acquired using Clampex 10.7 (Molecular Devices) acquisition software and analysed with Clampfit 10.7 software (Axon Instruments) and Origin. The temperature in the room was approximately 21° C.
For gap-free experiments, symmetrical (same solution in pipette and bath) KCl solution (200 mM KCl, 30 mM HEPES, pH adjusted to 7.4 with KOH), NaCl solution (200 mM NaCl, 30 mM HEPES, pH adjusted to 7.4 with NaOH) or NMDG-Cl solution (200 mM NMDG, 30 mM HEPES, pH adjusted to 7.4 with HCl) were used for both the internal and external solutions. All the traces were recorded at 100 mV for 5 minutes.
FIGS. 12-14 show single channel activity elicited by 10 μM 6-O-10 in the presence of symmetrical KCl, NaCl and NMDG-Cl solutions, respectively. FIGS. 15-17 show single channel activity elicited by 10 μM 6-A-10 in the presence of symmetrical KCl, NaCl and NMDG-Cl solutions, respectively. Histograms for a total recording time of 900 s are included below every record.
Ion channel activity was measured in the presence of symmetrical 200 mM KCl, NaCl or NMDG-Cl at a concentration of 10 μM for each compound. Three different records of 300 s each were analyzed for every condition shown in (FIGS. 12-17).
To estimate the relative permeabilities of various ions, the product of number of channels (N) and open probability (Po) and the conductance from the amplitude histograms must be taken into consideration (Table 1). Unlike measurements from single ion channels, the present analysis is not constrained to recordings from patches that contain single functional channels. Thus, the possibility that the supramolecular assembly of synthetic channels is dynamic, and that new channels form during recordings with different oligomerization states cannot be ruled out. The only parameter that can be controlled is the concentration of the compounds in solution. All measurements reported here were obtained at 10 μM solution concentration. […]

[2] = Reversal potential and permeability ratio under bi-ionic conditions (voltage ramps); format: biochemical; details: 10 μM; for permeability ratio pK/pNa: Goldman-Hodgkin-Katz equation from reversal potential; for estimated reversal potential: internal 180 mM NaCl, 20 mM KCl, external 20 mM NaCl, 180 mM KCl, n=6
Experimental: This can be determined by measuring the reversal potential under bi-ionic conditions and by applying rapid voltage ramps to measure reversal from open channels. For the determination of permeability ratios, a voltage protocol (detailed below) was applied 100 times to the membrane, while a gradient of ions was set through the membrane (internal solution: 180 mM NaCl, 20 mM KCl, 30 mM HEPES, pH adjusted to 7.4 with NaOH; external solution: 20 mM NaCl, 180 mM KCl, 30 mM HEPES, pH adjusted to 7.4 with NaOH). The protocol started from the holding potential (0 mV), followed by a jump to 100 mV during 100 ms, then a ramp of 1000 ms until −100 mV, maintenance of the voltage at −100 mV for 100 ms before returning to the initial 0 mV holding potential. Calculation of the variance at every isochrone allowed determination of the reversal potential (Vrev) as the voltage at which the variance is minimized. The permeability ratio for
was calculated from the Goldman-Hodgkin-Katz (GHK) equation by assuming that reversal potential is the equilibrium membrane voltage reached by a selective membrane in the presence of that gradient of ions. This leads to the equation 1: […]
where F is the Faraday constant, R is the gas constant, T is the absolute temperature, [K^+]i, and [K^+]e are the internal and external K^+ concentrations, respectively, and [Na^+]i, and [Na^+]e are the internal and external Na^+ concentrations, respectively.
Multiple voltage ramps (N=100) from +100 mV to −100 mV were applied in the presence of 10 μM 6-A-10 (FIG. 18) and 10 μM 6-O-10 (FIG. 20). The reversal potential for each case was determined as that voltage which produces the minimum of variance (FIGS. 19 and 21). In FIGS. 19 and 21, the curves are the variance calculated from experiments in FIGS. 18 and 20, respectively.
In these experiments, the internal concentration of Na^+ in the pipette was 9-fold higher than the external concentration, whereas the K^+ gradient was reversed (internal solution: 180 mM NaCl, 20 mM KCl, 30 mM HEPES, pH 7.4; external solution: 20 mM NaCl, 180 mM KCl, 30 mM HEPES, pH 7.4). If the channels are K^+ selective, the reversal potential will be close to the K^+ Nernst potential, which is 58 mV. In contrast, if the channels are highly Na^+ selective, then the reversal potential will be close to the Na^+ Nernst potential (−58 mV).

SMILES	efficiency of K+ transport compared to 6-O-10 [1]	single channel conductance with different ions [1]	single channel activity with different ions ([1]; symmetrical 200 mM KCl)	NPO ([1]; symmetrical 200 mM KCl)	Translocation rate ([1]; symmetrical 200 mM KCl)	NPO ([1]; symmetrical 200 mM NMDG-Cl)	Translocation rate ([1]; symmetrical 200 mM NMDG-Cl)	NPO ([1]; symmetrical 200 mM NaCl)	Translocation rate ([1]; symmetrical 200 mM NaCl)	permeability ratio pK/pNa [2]	estimated reversal potential [2] [mV]	efficiency of K+ permeation relative to NMDG+ ([1]; from translocation rates) [fold]	efficiency of K+ permeation relative to Na+ ([1]; from translocation rates) [fold]
CCCCCCCCCCc1ccc2c(c1)OCCOCCOCCOCCOCCO2 [Compound 6-A-10, 18-decyl-2,3,5,6,8,9,11,12,14,15-decahydrobenzo[b][1,4,7,10,13,16]hexaoxacyclooctadecine]	an order of magnitude less efficient	very similar with the different ions	does not vary significantly	0.18 ± 0.02	3.2 ± 0.3 10^6/sec	0.19 ± 0.12	5.0 ± 1.9 10^6/sec	0.16 ± 0.02	4.5 ± 0.7 10^6/sec	1.4	8.0±0.8	–	–
CCCCCCCCCC(=O)c1ccc2c(c1)OCCOCCOCCOCCOCCO2 [Compound 6-O-10, 1-(2,3,5,6,8,9,11,12,14,15-decahydrobenzo[b][1,4,7,10,13,16]hexaoxacyclooctadecin-18-yl)decan-1-one]	–	only half that observed in the presence of K^+	highest in the presence of K^+ and Na^+ as compared to NMDG^+	0.58 ± 0.16	43.4 ± 5.8 10^6/sec	0.25 ± 0.13	7.1 ± 3.4 10^6/sec	0.56 ± 0.10	11.3 ± 1.1 10^6/sec	1.3	6.5±0.6	7	3.5
